{"source": "patent US20020128193A1", "about": "“Retro-inverso prosaposin-derived peptides and use thereof” (priority 1999, published 2002)", "molecules": {"B1": {"name": "saposin C: glycoprotein generated by proteolytic processing of prosaposin (protein, UniProt P07602 311-390, looked up)", "Saposin-C": "SDVYCEVCEFLVKEVTKLIDNNKTEKEILDAFDKMCSKLPKSLSEECQEVVDTYGSSILSILLEEVSPELVCSMLHLCSG", "modifications": "Saposin-C", "notes": "glycoprotein generated by proteolytic processing of prosaposin"}}, "key": {"[1]": {"system": "neuroblastoma cells and mouse cerebellar explants", "details": "cited from earlier work"}, "[2]": {"system": "NS20Y neuroblastoma cells", "details": "for Bioactive?: neurite outgrowth, 0-8 ng/ml peptide, 24 hours", "method": "NS20Y neuroblastoma cells were grown in DMEM containing 10% fetal calf serum (FCS). Cells were removed with trypsin and plated in 30 mm petri dishes onto glass coverslips. […] Cells were cultured for an additional 24 hours, washed with PBS and fixed with Bouin's solution (saturated aqueous picric acid/formalin/acetic acid 15:5:1) for 30 minutes. Fixative was removed with PBS and neurite outgrowth was scored under a phase contrast microscope. […] At least 200 cells were scored in different portions of each dish to determine the percentage of neurite bearing cells and assays were performed in duplicate.\nThe ED50 value is defined as the half maximal concentration for maximal neurite outgrowth and neural protection in ng/ml."}, "[3]": {"system": "neuroblastoma cells", "details": "neuroblastoma cells in vitro; cited from earlier work"}, "[4]": {"system": "choline acetyltransferase", "details": "neuroblastoma cells in vitro; cited from earlier work"}, "[5]": {"test": "Localization and integrity of 125I-peptide D8 in organs after intramuscular or oral administration", "assay_type": "in vivo, Sprague-Dawley rat", "details": "for D8 in tissue: Brain / D8 in tissue: Eyes / D8 in tissue: Heart / D8 in tissue: Kidney 1 / D8 in tissue: Kidney 2 / D8 in tissue: Liver / D8 in tissue: Lung / D8 in tissue: Muscle / D8 in tissue: Sciatic Nerve / D8 in tissue: Spinal Cord / D8 in tissue: Spleen: 200 μg/kg, rat; for crossing of the blood brain barrier: iodinated D8, rat, found in brain after oral administration", "method": "Peptide D8 (SEQ ID NO: 4) was iodinated with ^125I according to the manufacturer's instructions (Pierce Chemical Co., Rockford, Ill.), and 200 μg/kg in PBS was injected intramuscularly into, or administered orally to, an adult male Sprague-Dawley rat. […] Results below give ng/g of […] in each tissue after conversion of cpm to nanograms (Table 2). All organs studied contained 90% or greater intact D8. The trophic concentration was estimated to be about 0.2 ng/g over 20 min."}, "[6]": {"system": "EAE rats", "test": "Reversal of demyelination in experimental allergic encephalomyelitis (EAE) rat model", "assay_type": "in vivo, Lewis rats", "details": "oral D8 100 μg/kg daily", "method": "Experimental allergic encephalomyelitis (EAE) is a rat model of human multiple sclerosis (MS). In rats, EAE is induced by injecting foreign protein (guinea pig spinal cord) which results in inflammation and demyelination in white matter 11 days later.\nEAE was induced in Lewis rats by injection of an emulsion of guinea pig spinal cord and complete Freund's adjuvant (CFA). At day 12-14, when weakness was evident, treatment with D8 (SEQ ID NO: 4) was begun (100 μg/kg orally in PBS via a stomach tube) and continued for 16 days every day. Six rats were injected with vehicle only. The number and size of demyelinating lesions (plaques) in the spinal cord per mm^2 was scored at […].\nAfter 16 days of oral treatment with D8 (100 μg/kg/day) beginning after the onset of EAE at 14 days, spinal cord lesions were examined and the number of remyelinated axons per lesion were counted."}, "[7]": {"system": "myelination", "details": "cited from earlier work"}, "[8]": {"details": "half maximal concentration for maximal neurite outgrowth and neural protection, NS20Y cells"}}, "note": "Where two headings read alike, the source gives them in different places. Non-standard residues stand in square brackets, D forms with d. Residues, ends and D or L forms follow the SMILES beside them. No end group written: not given here.", "data": [{"molecule": "YKEVTKLIDNNKTEKEIL [Peptide 18-mer]", "values": [{"measurement": "neurite outgrowth", "setting": "[1]", "result": "promotes neurite outgrowth"}]}, {"molecule": "YSLEKETKNNDLL [Peptide D6]", "values": [{"measurement": "ED50", "setting": "[2]; [8]", "result": 0.27, "unit": "ng/mL"}, {"measurement": "Bioactive?", "setting": "[2]; NS20Y cells", "result": "YES"}]}, {"molecule": "TXLIDNNATEEILY, X=D-alanine (T[dA]LIDNNATEEILY) [Peptide D1]", "values": [{"measurement": "ED50", "setting": "[2]; [8]", "result": 1.00, "unit": "ng/mL"}, {"measurement": "Bioactive?", "setting": "[2]; NS20Y cells", "result": "YES"}]}, {"molecule": "YLLEETANNDLLAT [Peptide D3]", "values": [{"measurement": "ED50", "setting": "[2]; [8]", "result": 0.4, "unit": "ng/mL"}, {"measurement": "Bioactive?", "setting": "[2]; NS20Y cells", "result": "YES"}]}, {"molecule": "CEFLVKEVTKLIDNNKTEKEIL [Peptide 22-mer, 22-mer peptide consisting of amino acids 8-29 of human saposin C]", "values": [{"measurement": "cell death", "setting": "[3]", "result": "prevents cell death"}, {"measurement": "choline acetyltransferase activity", "setting": "[4]", "result": "stimulates choline acetyltransferase activity"}, {"measurement": "neurite outgrowth", "setting": "[1]; in both neuroblastoma cells and mouse cerebellar explants", "result": "stimulates neurite outgrowth"}]}, {"molecule": "YLIEETANNDLAT [Peptide D2]", "values": [{"measurement": "ED50", "setting": "[2]; [8]", "result": 0.8, "unit": "ng/mL"}, {"measurement": "Bioactive?", "setting": "[2]; NS20Y cells", "result": "YES"}]}, {"molecule": "CC(C)C[C@@H](N)C(=O)N[C@H](CC(C)C)C(=O)N[C@H](CCC(=O)O)C(=O)N[C@H](CCC(=O)O)C(=O)N[C@H](CC(N)=O)C(=O)N[C@H](CC(N)=O)C(=O)N[C@H](CC(=O)O)C(=O)N[C@H](CC(C)C)C(=O)O", "note": "[Peptide D8, D-leu-D-leu-D-glu-D-glu-D-asn-D-asn-D-asp-D-leu] (HELM PEPTIDE1{[dL].[dL].[dE].[dE].[dN].[dN].[dD].[dL]}$$$$V2.0; N-terminus and C-terminus assumed)", "values": [{"measurement": "ED50", "setting": "[2]", "result": 0.01, "unit": "ng/mL"}, {"measurement": "D8 in tissue: Brain", "setting": "[5]; intramuscular, 20 min", "result": 1.00, "unit": "ng/g"}, {"measurement": "D8 in tissue: Eyes", "setting": "[5]; intramuscular, 20 min", "result": 13.9, "unit": "ng/g"}, {"measurement": "D8 in tissue: Heart", "setting": "[5]; intramuscular, 20 min", "result": 9.8, "unit": "ng/g"}, {"measurement": "D8 in tissue: Kidney 1", "setting": "[5]; intramuscular, 20 min", "result": 395, "unit": "ng/g"}, {"measurement": "D8 in tissue: Kidney 2", "setting": "[5]; intramuscular, 20 min", "result": 405, "unit": "ng/g"}, {"measurement": "D8 in tissue: Liver", "setting": "[5]; intramuscular, 20 min", "result": 8.0, "unit": "ng/g"}, {"measurement": "D8 in tissue: Lung", "setting": "[5]; intramuscular, 20 min", "result": 43.0, "unit": "ng/g"}, {"measurement": "D8 in tissue: Muscle", "setting": "[5]; intramuscular, 20 min", "result": 19.7, "unit": "ng/g"}, {"measurement": "D8 in tissue: Sciatic Nerve", "setting": "[5]; intramuscular, 20 min", "result": 36.7, "unit": "ng/g"}, {"measurement": "D8 in tissue: Spinal Cord", "setting": "[5]; intramuscular, 20 min", "result": 2.90, "unit": "ng/g"}, {"measurement": "D8 in tissue: Spleen", "setting": "[5]; intramuscular, 20 min", "result": 41.7, "unit": "ng/g"}, {"measurement": "crossing of the blood brain barrier", "setting": "[5]", "result": "can cross the blood brain barrier"}, {"measurement": "crossing of the blood brain barrier", "setting": "[5]; listed as SEQ ID NO: 4", "result": "crosses the blood brain barrier"}, {"measurement": "D8 in tissue: Brain", "setting": "[5]; oral, 25 min", "result": 5.62, "unit": "ng/g"}, {"measurement": "D8 in tissue: Eyes", "setting": "[5]; oral, 25 min", "result": 4.66, "unit": "ng/g"}, {"measurement": "D8 in tissue: Heart", "setting": "[5]; oral, 25 min", "result": 3.26, "unit": "ng/g"}, {"measurement": "D8 in tissue: Kidney 1", "setting": "[5]; oral, 25 min", "result": 201, "unit": "ng/g"}, {"measurement": "D8 in tissue: Kidney 2", "setting": "[5]; oral, 25 min", "result": 217, "unit": "ng/g"}, {"measurement": "D8 in tissue: Liver", "setting": "[5]; oral, 25 min", "result": 5.6, "unit": "ng/g"}, {"measurement": "D8 in tissue: Lung", "setting": "[5]; oral, 25 min", "result": 526, "unit": "ng/g"}, {"measurement": "D8 in tissue: Muscle", "setting": "[5]; oral, 25 min", "result": 3.2, "unit": "ng/g"}, {"measurement": "D8 in tissue: Sciatic Nerve", "setting": "[5]; oral, 25 min", "result": 3.3, "unit": "ng/g"}, {"measurement": "D8 in tissue: Spinal Cord", "setting": "[5]; oral, 25 min", "result": 2.15, "unit": "ng/g"}, {"measurement": "D8 in tissue: Spleen", "setting": "[5]; oral, 25 min", "result": 4.9, "unit": "ng/g"}, {"measurement": "weight loss versus control animals", "setting": "[6]", "result": "no difference in weight loss"}]}, {"molecule": "LLEETANNDL [Peptide D5]", "values": [{"measurement": "ED50", "setting": "[2]; [8]", "result": 0.2, "unit": "ng/mL"}, {"measurement": "Bioactive?", "setting": "[2]; NS20Y cells", "result": "YES"}]}, {"molecule": "YLLEETANNDL [Peptide D4]", "values": [{"measurement": "ED50", "setting": "[2]; [8]", "result": 0.4, "unit": "ng/mL"}, {"measurement": "Bioactive?", "setting": "[2]; NS20Y cells", "result": "YES"}]}, {"molecule": "B1", "values": [{"measurement": "myelination", "setting": "[7]", "result": "promote increased myelination"}, {"measurement": "neurite outgrowth", "setting": "[1]", "result": "stimulate neurite outgrowth"}]}]}
